Reference: patent US20260242419A1, “A CYCLIC PEPTIDE FOR TRAPPING INTERLEUKIN-1 BETA” (Merck Sharp & Dohme LLC, priority 2023, published 2026)
Starred links: 1 amine or outer side, 2 acyl side, 3 side chain; linkers in the order of their positions; H or OH if unused. Non-standard residues stand in square brackets, D forms with d. Residues, ends and D or L forms follow the SMILES beside them. Trp(4-Cl)(βS-Me) = C[C@@H](c1c[nH]c2cccc(Cl)c12)[C@H](N)C(=O)O; Trp(βS-Me,4-F) = C[C@@H](c1c[nH]c2cccc(F)c12)[C@H](N)C(=O)O; Bip(4'-COOH) = N[C@@H](Cc1ccc(-c2ccc(C(=O)O)cc2)cc1)C(=O)O; dPro(4R-Bzl(4-F)) = O=C(O)[C@H]1C[C@@H](Cc2ccc(F)cc2)CN1; Ala(pyrimidin-5-yl) = N[C@@H](Cc1cncnc1)C(=O)O; Phe(4-COOH) = N[C@@H](Cc1ccc(C(=O)O)cc1)C(=O)O; dαMeDab = C[C@](CCN[*:3])(N[*:1])C(=O)[*:2]; Pro(cis-4-F) = O=C(O)[C@@H]1C[C@H](F)CN1; X10 = C[C@@](CCN)(N[*:1])C(=O)[*:2]; cisHyp = O=C(O)[C@@H]1C[C@H](O)CN1; d(αMeD) = C[C@@](N)(CC(=O)O)C(=O)O; aIle = CC[C@@H](C)[C@H](N)C(=O)O; 4Pal = N[C@@H](Cc1ccncc1)C(=O)O; aThr = C[C@H](O)[C@H](N)C(=O)O; αMeK = C[C@](N)(CCCCN)C(=O)O; hSer = N[C@@H](CCO)C(=O)O; Dab = NCC[C@H](N)C(=O)O; Aib = CC(C)(N)C(=O)O; Sar = CNCC(=O)O

The molecules below were run against T1, IL-1β (Homo sapiens, UniProt P01584) (assay: IL-6 assay in MRC5 cells: inhibition of IL-1β induced IL-6 secretion (AlphaLISA)). Settings: inhibition of IL-1β induced IL-6 secretion in MRC5 cells; read-out: MRC5 IC50.
T1 construct: purchased BioLegend 579404
T1 sequence (P01584 117-269): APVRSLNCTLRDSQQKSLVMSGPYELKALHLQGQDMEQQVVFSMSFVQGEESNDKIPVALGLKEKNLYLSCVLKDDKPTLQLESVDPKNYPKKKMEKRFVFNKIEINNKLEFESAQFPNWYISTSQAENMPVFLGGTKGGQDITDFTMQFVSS
Type: cell-based
Summary of the method: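 Compound was pre-incubated 1 h at ambient temperature with recombinant human IL-1β at 2λ EC80 before adding human lung fibroblast MRC5 cells (3000/well) in EMEM with 0.025% BSA. After overnight culture at 37 °C, 5% CO2, secreted IL-6 in conditioned medium was measured by AlphaLISA; IC50 from 4-parameter logistic fits.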

| SMILES | IC50 [nM] |
| --- | --- |
| C[C@@H](c1c[nH]c2cccc(F)c12)[C@@H]1NC(=O)[C@@H]2C[C@H](O)CN2C(=O)CNC(=O)[C@H](Cc2ccc(C(=O)O)cc2)NC(=O)[C@H](Cc2ccncc2)NC(=O)[C@H](Cc2ccc(-c3ccc(C(=O)O)cc3)cc2)NC(=O)[C@H]2C[C@@H](Cc3ccc(F)cc3)CN2C(=O)CNC(=O)[C@H](CCN)NC(=O)[C@H](CCC(N)=O)NC(=O)[C@H](Cc2cncnc2)NC(=O)C(C)(C)NC(=O)[C@H](Cc2c[nH]c3ccccc23)NC(=O)[C@H](CO)NC(=O)C(C)(C)NC1=O [Example 127] (cyclo([Bip(4'-COOH)][4Pal][Phe(4-COOH)]G[cisHyp][Trp(βS-Me,4-F)][Aib]SW[Aib][Ala(pyrimidin-5-yl)]Q[Dab]G[dPro(4R-Bzl(4-F))])) | 0.013 |
| C[C@@H](c1c[nH]c2cccc(F)c12)[C@@H]1NC(=O)[C@@H]2C[C@H](F)CN2C(=O)CNC(=O)[C@H](Cc2ccc(C(=O)O)cc2)NC(=O)[C@H](Cc2ccncc2)NC(=O)[C@H](Cc2ccc(-c3ccc(C(=O)O)cc3)cc2)NC(=O)[C@H]2C[C@@H](Cc3ccc(F)cc3)CN2C(=O)CNC(=O)[C@H](CCN)NC(=O)[C@H](CCC(N)=O)NC(=O)[C@H](Cc2cncnc2)NC(=O)[C@@](C)(CC(=O)O)NC(=O)[C@H](Cc2c[nH]c3ccccc23)NC(=O)[C@H](CO)NC(=O)C(C)(C)NC1=O [Example 128] (cyclo([Bip(4'-COOH)][4Pal][Phe(4-COOH)]G[Pro(cis-4-F)][Trp(βS-Me,4-F)][Aib]SW[d(αMeD)][Ala(pyrimidin-5-yl)]Q[Dab]G[dPro(4R-Bzl(4-F))])) | 0.009 |
| C[C@@H](c1c[nH]c2cccc(F)c12)[C@@H]1NC(=O)[C@@H]2C[C@H](F)CN2C(=O)CNC(=O)[C@H](Cc2ccc(C(=O)O)cc2)NC(=O)[C@H](Cc2ccncc2)NC(=O)[C@H](Cc2ccc(-c3ccc(C(=O)O)cc3)cc2)NC(=O)[C@H]2C[C@@H](Cc3ccc(F)cc3)CN2C(=O)CNC(=O)[C@H](CCN)NC(=O)[C@H](CCC(N)=O)NC(=O)[C@H](Cc2cncnc2)NC(=O)C(C)(C)NC(=O)[C@H](Cc2c[nH]c3ccccc23)NC(=O)[C@H](CO)NC(=O)[C@](C)(CCN)NC1=O [Example 129] (cyclo([Bip(4'-COOH)][4Pal][Phe(4-COOH)]G[Pro(cis-4-F)][Trp(βS-Me,4-F)][X10]SW[Aib][Ala(pyrimidin-5-yl)]Q[Dab]G[dPro(4R-Bzl(4-F))])) | 0.019 |
| C[C@@H](c1c[nH]c2cccc(F)c12)[C@@H]1NC(=O)[C@@H]2C[C@H](F)CN2C(=O)CNC(=O)[C@H](Cc2ccc(C(=O)O)cc2)NC(=O)[C@H](Cc2ccncc2)NC(=O)[C@H](Cc2ccc(-c3ccc(C(=O)O)cc3)cc2)NC(=O)[C@H]2C[C@@H](Cc3ccc(F)cc3)CN2C(=O)CNC(=O)[C@H](CCN)NC(=O)[C@H](CCC(N)=O)NC(=O)[C@H](Cc2cncnc2)NC(=O)[C@](C)(CCN)NC(=O)[C@H](Cc2c[nH]c3ccccc23)NC(=O)[C@H](CO)NC(=O)C(C)(C)NC1=O [Example 130] (cyclo([Bip(4'-COOH)][4Pal][Phe(4-COOH)]G[Pro(cis-4-F)][Trp(βS-Me,4-F)][Aib]SW[X10][Ala(pyrimidin-5-yl)]Q[Dab]G[dPro(4R-Bzl(4-F))])) | 0.039 |
| C[C@@H](c1c[nH]c2cccc(F)c12)[C@@H]1NC(=O)[C@@H]2C[C@H](F)CN2C(=O)CNC(=O)[C@H](Cc2ccc(C(=O)O)cc2)NC(=O)[C@H](Cc2ccncc2)NC(=O)[C@H](Cc2ccc(-c3ccc(C(=O)O)cc3)cc2)NC(=O)[C@H]2C[C@@H](Cc3ccc(F)cc3)CN2C(=O)CNC(=O)[C@H](CCN)NC(=O)[C@H](CCC(N)=O)NC(=O)[C@H](Cc2cncnc2)NC(=O)C(C)(C)NC(=O)[C@H](Cc2c[nH]c3ccccc23)NC(=O)[C@H](CO)NC(=O)[C@@](C)(CCN)NC1=O [Example 131] (cyclo([Bip(4'-COOH)][4Pal][Phe(4-COOH)]G[Pro(cis-4-F)][Trp(βS-Me,4-F)][dαMeDab]SW[Aib][Ala(pyrimidin-5-yl)]Q[Dab]G[dPro(4R-Bzl(4-F))])) | 0.019 |
| C[C@@H](c1c[nH]c2cccc(F)c12)[C@@H]1NC(=O)[C@@H]2C[C@H](F)CN2C(=O)CNC(=O)[C@H](Cc2ccc(C(=O)O)cc2)NC(=O)[C@H](Cc2ccncc2)NC(=O)[C@H](Cc2ccc(-c3ccc(C(=O)O)cc3)cc2)NC(=O)[C@H]2C[C@@H](Cc3ccc(F)cc3)CN2C(=O)CN(C)C(=O)[C@H](CCN)NC(=O)[C@H](CCC(N)=O)NC(=O)[C@H](Cc2cncnc2)NC(=O)[C@](C)(CCCCN)NC(=O)[C@H](Cc2c[nH]c3ccccc23)NC(=O)[C@H](CCC(=O)O)NC(=O)C(C)(C)NC1=O [Example 132] (cyclo([Bip(4'-COOH)][4Pal][Phe(4-COOH)]G[Pro(cis-4-F)][Trp(βS-Me,4-F)][Aib]EW[αMeK][Ala(pyrimidin-5-yl)]Q[Dab][Sar][dPro(4R-Bzl(4-F))])) | 0.015 |
| C[C@@H](c1c[nH]c2cccc(F)c12)[C@@H]1NC(=O)[C@@H]2C[C@H](F)CN2C(=O)CNC(=O)[C@H](Cc2ccc(C(=O)O)cc2)NC(=O)[C@H](Cc2ccncc2)NC(=O)[C@H](Cc2ccc(-c3ccc(C(=O)O)cc3)cc2)NC(=O)[C@H]2C[C@@H](Cc3ccc(F)cc3)CN2C(=O)CNC(=O)[C@H](CCN)NC(=O)[C@H](CCC(N)=O)NC(=O)[C@H](Cc2cncnc2)NC(=O)[C@](C)(CCCCN)NC(=O)[C@H](Cc2c[nH]c3ccccc23)NC(=O)[C@H](CCO)NC(=O)C(C)(C)NC1=O [Example 133] (cyclo([Bip(4'-COOH)][4Pal][Phe(4-COOH)]G[Pro(cis-4-F)][Trp(βS-Me,4-F)][Aib][hSer]W[αMeK][Ala(pyrimidin-5-yl)]Q[Dab]G[dPro(4R-Bzl(4-F))])) | 0.021 |
| C[C@@H]1NC(=O)C(C)(C)NC(=O)[C@H]([C@@H](C)c2c[nH]c3cccc(F)c23)NC(=O)[C@@H]2C[C@H](F)CN2C(=O)CNC(=O)[C@H](Cc2ccc(C(=O)O)cc2)NC(=O)[C@H](Cc2ccncc2)NC(=O)[C@H](Cc2ccc(-c3ccc(C(=O)O)cc3)cc2)NC(=O)[C@H]2C[C@@H](Cc3ccc(F)cc3)CN2C(=O)CNC(=O)[C@H](CCN)NC(=O)[C@H](CCC(N)=O)NC(=O)[C@H](Cc2cncnc2)NC(=O)[C@](C)(CCCCN)NC(=O)[C@H](Cc2c[nH]c3ccccc23)NC1=O [Example 134] (cyclo([Bip(4'-COOH)][4Pal][Phe(4-COOH)]G[Pro(cis-4-F)][Trp(βS-Me,4-F)][Aib]AW[αMeK][Ala(pyrimidin-5-yl)]Q[Dab]G[dPro(4R-Bzl(4-F))])) | 0.021 |
| CC(C)[C@@H]1NC(=O)C(C)(C)NC(=O)[C@H]([C@@H](C)c2c[nH]c3cccc(F)c23)NC(=O)[C@@H]2C[C@H](F)CN2C(=O)CNC(=O)[C@H](Cc2ccc(C(=O)O)cc2)NC(=O)[C@H](Cc2ccncc2)NC(=O)[C@H](Cc2ccc(-c3ccc(C(=O)O)cc3)cc2)NC(=O)[C@H]2C[C@@H](Cc3ccc(F)cc3)CN2C(=O)CNC(=O)[C@H](CCN)NC(=O)[C@H](CCC(N)=O)NC(=O)[C@H](Cc2cncnc2)NC(=O)[C@](C)(CCCCN)NC(=O)[C@H](Cc2c[nH]c3ccccc23)NC1=O [Example 135] (cyclo([Bip(4'-COOH)][4Pal][Phe(4-COOH)]G[Pro(cis-4-F)][Trp(βS-Me,4-F)][Aib]VW[αMeK][Ala(pyrimidin-5-yl)]Q[Dab]G[dPro(4R-Bzl(4-F))])) | 0.035 |
| CC[C@@H](C)[C@@H]1NC(=O)C(C)(C)NC(=O)[C@H]([C@@H](C)c2c[nH]c3cccc(F)c23)NC(=O)[C@@H]2C[C@H](F)CN2C(=O)CNC(=O)[C@H](Cc2ccc(C(=O)O)cc2)NC(=O)[C@H](Cc2ccncc2)NC(=O)[C@H](Cc2ccc(-c3ccc(C(=O)O)cc3)cc2)NC(=O)[C@H]2C[C@@H](Cc3ccc(F)cc3)CN2C(=O)CNC(=O)[C@H](CCN)NC(=O)[C@H](CCC(N)=O)NC(=O)[C@H](Cc2cncnc2)NC(=O)[C@](C)(CCCCN)NC(=O)[C@H](Cc2c[nH]c3ccccc23)NC1=O [Example 136] (cyclo([Bip(4'-COOH)][4Pal][Phe(4-COOH)]G[Pro(cis-4-F)][Trp(βS-Me,4-F)][Aib][aIle]W[αMeK][Ala(pyrimidin-5-yl)]Q[Dab]G[dPro(4R-Bzl(4-F))])) | 0.027 |
| C[C@@H](O)[C@@H]1NC(=O)C(C)(C)NC(=O)[C@H]([C@@H](C)c2c[nH]c3cccc(F)c23)NC(=O)[C@@H]2C[C@H](F)CN2C(=O)CNC(=O)[C@H](Cc2ccc(C(=O)O)cc2)NC(=O)[C@H](Cc2ccncc2)NC(=O)[C@H](Cc2ccc(-c3ccc(C(=O)O)cc3)cc2)NC(=O)[C@H]2C[C@@H](Cc3ccc(F)cc3)CN2C(=O)CNC(=O)[C@H](CCN)NC(=O)[C@H](CCC(N)=O)NC(=O)[C@H](Cc2cncnc2)NC(=O)[C@](C)(CCCCN)NC(=O)[C@H](Cc2c[nH]c3ccccc23)NC1=O [Example 137] (cyclo([Bip(4'-COOH)][4Pal][Phe(4-COOH)]G[Pro(cis-4-F)][Trp(βS-Me,4-F)][Aib]TW[αMeK][Ala(pyrimidin-5-yl)]Q[Dab]G[dPro(4R-Bzl(4-F))])) | 0.022 |
| C[C@H](O)[C@@H]1NC(=O)C(C)(C)NC(=O)[C@H]([C@@H](C)c2c[nH]c3cccc(F)c23)NC(=O)[C@@H]2C[C@H](F)CN2C(=O)CNC(=O)[C@H](Cc2ccc(C(=O)O)cc2)NC(=O)[C@H](Cc2ccncc2)NC(=O)[C@H](Cc2ccc(-c3ccc(C(=O)O)cc3)cc2)NC(=O)[C@H]2C[C@@H](Cc3ccc(F)cc3)CN2C(=O)CNC(=O)[C@H](CCN)NC(=O)[C@H](CCC(N)=O)NC(=O)[C@H](Cc2cncnc2)NC(=O)[C@](C)(CCCCN)NC(=O)[C@H](Cc2c[nH]c3ccccc23)NC1=O [Example 138] (cyclo([Bip(4'-COOH)][4Pal][Phe(4-COOH)]G[Pro(cis-4-F)][Trp(βS-Me,4-F)][Aib][aThr]W[αMeK][Ala(pyrimidin-5-yl)]Q[Dab]G[dPro(4R-Bzl(4-F))])) | 0.021 |
| C[C@@H](c1c[nH]c2cccc(Cl)c12)[C@@H]1NC(=O)[C@@H]2C[C@H](F)CN2C(=O)CNC(=O)[C@H](Cc2ccc(C(=O)O)cc2)NC(=O)[C@H](Cc2ccncc2)NC(=O)[C@H](Cc2ccc(-c3ccc(C(=O)O)cc3)cc2)NC(=O)[C@H]2C[C@@H](Cc3ccc(F)cc3)CN2C(=O)CNC(=O)[C@H](CCN)NC(=O)[C@H](CCC(N)=O)NC(=O)[C@H](Cc2cncnc2)NC(=O)C(C)(C)NC(=O)[C@H](Cc2c[nH]c3ccccc23)NC(=O)[C@H](CO)NC(=O)C(C)(C)NC1=O [Example 139] (cyclo([Bip(4'-COOH)][4Pal][Phe(4-COOH)]G[Pro(cis-4-F)][Trp(4-Cl)(βS-Me)][Aib]SW[Aib][Ala(pyrimidin-5-yl)]Q[Dab]G[dPro(4R-Bzl(4-F))])) | 0.034 |
